Source: PubChem BioAssay AID190 (DTP/NCI, 2004)
“And” between values parts separate entries of the source, which are not always exact repeats. Identical values can stand only once. Inconclusive results and toxic doses are left out.

Tested on: AKR/Lw mice, AKR lymphoma ip, median survival T/C
Assay: NCI In Vivo Anticancer Drug Screen. Data for tumor model Lymphoma AKR (Transplanted) (intraperitoneal) in AKR/Lw mice
Settings: endpoint: median survival time, higher = longer survival
Experimental: The antitumor activity of compounds was measured in mice bearing transplantable tumors. Survival or tumor size were measured and the results are expressed as the measurement made in the treated group (T) divided by the measurement made in the vehicle treated control group (C). The tumor model used in this assay is Lymphoma AKR (Transplanted) (intraperitoneal) in AKR/Lw mice

[1] = dose: 100.0 mg/kg/injection, schedule: Q01DX001 (ip), vehicle: saline
[2] = dose: 200.0 mg/kg/injection, schedule: Q01DX001 (ip), vehicle: saline
[3] = dose: 400.0 mg/kg/injection, schedule: Q01DX001 (ip), vehicle: saline
[4] = dose: 100.0 mg/kg/injection, schedule: Q01DX001 (ip), vehicle: Klucel (hydroxypropylcellulose) (HPC)
[5] = dose: 200.0 mg/kg/injection, schedule: Q01DX001 (ip), vehicle: Klucel (hydroxypropylcellulose) (HPC)
[6] = dose: 400.0 mg/kg/injection, schedule: Q01DX001 (ip), vehicle: Klucel (hydroxypropylcellulose) (HPC)
[7] = dose: 50.0 mg/kg/injection, schedule: Q04DX003 (ip), vehicle: Klucel (hydroxypropylcellulose) (HPC)
[8] = dose: 100.0 mg/kg/injection, schedule: Q04DX003 (ip), vehicle: Klucel (hydroxypropylcellulose) (HPC)
[9] = dose: 200.0 mg/kg/injection, schedule: Q04DX003 (ip), vehicle: Klucel (hydroxypropylcellulose) (HPC)
[10] = dose: 50.0 mg/kg/injection, schedule: Q01DX001 (ip), vehicle: saline
[11] = dose: 25.0 mg/kg/injection, schedule: Q01DX001 (ip), vehicle: saline

## CCCCCCCCCCCCCCCC(=O)OCC1OC(n2ccc(N)nc2=O)C(O)C1O (stereo not drawn)
dose: 0.07 mg/kg/injection, schedule: Q01DX015 (ip), vehicle: saline with Tween-80
  T/C: 150 % of control
dose: 0.15 mg/kg/injection, schedule: Q01DX015 (ip), vehicle: saline with Tween-80
  T/C: 115 % of control
dose: 0.31 mg/kg/injection, schedule: Q01DX010 (ip), vehicle: saline with Tween-80
  T/C: 110 % of control
dose: 0.62 mg/kg/injection, schedule: Q01DX010 (ip), vehicle: saline with Tween-80
  T/C: 110 % of control
dose: 0.62 mg/kg/injection, schedule: Q01DX015 (ip), vehicle: saline with Tween-80
  T/C: 375 % of control
dose: 1.25 mg/kg/injection, schedule: Q01DX015 (ip), vehicle: saline with Tween-80
  T/C: 165 % of control
dose: 2.5 mg/kg/injection, schedule: Q01DX015 (ip), vehicle: saline with Tween-80
  T/C: 225 % of control
dose: 3.12 mg/kg/injection, schedule: Q01DX001 (ip), vehicle: saline with Tween-80
  T/C: 111 % of control
dose: 3.75 mg/kg/injection, schedule: Q01DX005 (ip), vehicle: saline with Tween-80
  T/C: 100 % of control and 116 % of control
dose: 3.75 mg/kg/injection, schedule: Q01DX015 (ip), vehicle: saline with Tween-80
  T/C: 153 % of control
dose: 5.0 mg/kg/injection, schedule: Q01DX010 (ip), vehicle: saline with Tween-80
  T/C: 166 % of control and 218 % of control
dose: 5.0 mg/kg/injection, schedule: Q01DX015 (ip), vehicle: saline with Tween-80
  T/C: 212 % of control
dose: 6.25 mg/kg/injection, schedule: Q01DX001 (ip), vehicle: saline with Tween-80
  T/C: 102 % of control
dose: 6.25 mg/kg/injection, schedule: Q14DX003 (ip), vehicle: saline with Tween-80
  T/C: 112 % of control
dose: 7.5 mg/kg/injection, schedule: Q01DX015 (ip), vehicle: saline with Tween-80
  T/C: 200 % of control
dose: 10.0 mg/kg/injection, schedule: Q01DX010 (ip), vehicle: saline with Tween-80
  T/C: 180 % of control and 261 % of control
dose: 10.0 mg/kg/injection, schedule: Q01DX015 (ip), vehicle: saline with Tween-80
  T/C: 375 % of control
dose: 12.5 mg/kg/injection, schedule: Q01DX001 (ip), vehicle: saline with Tween-80
  T/C: 108 % of control
dose: 12.5 mg/kg/injection, schedule: Q09DX002 (ip), vehicle: saline with Tween-80
  T/C: 113 % of control
dose: 12.5 mg/kg/injection, schedule: Q14DX003 (ip), vehicle: saline with Tween-80
  T/C: 155 % of control
dose: 12.5 mg/kg/injection, schedule: Q14DX004 (ip), vehicle: saline with Tween-80
  T/C: 122 % of control
dose: 15.0 mg/kg/injection, schedule: Q01DX015 (ip), vehicle: saline with Tween-80
  T/C: 250 % of control
dose: 18.8 mg/kg/injection, schedule: Q01DX001 (ip), vehicle: saline with Tween-80
  T/C: 121 % of control
dose: 25.0 mg/kg/injection, schedule: Q09DX002 (ip), vehicle: saline with Tween-80
  T/C: 121 % of control
dose: 25.0 mg/kg/injection, schedule: Q14DX003 (ip), vehicle: saline with Tween-80
  T/C: 203 % of control
dose: 30.0 mg/kg/injection, schedule: Q01DX015 (ip), vehicle: saline with Tween-80
  T/C: 70 % of control
dose: 45.0 mg/kg/injection, schedule: Q01DX005 (ip), vehicle: saline with Tween-80
  T/C: 61 % of control and 110 % of control
dose: 50.0 mg/kg/injection, schedule: Q09DX002 (ip), vehicle: saline with Tween-80
  T/C: 172 % of control
dose: 50.0 mg/kg/injection, schedule: Q14DX003 (ip), vehicle: saline with Tween-80
  T/C: 183 % of control and 343 % of control
dose: 100.0 mg/kg/injection, schedule: Q14DX003 (ip), vehicle: saline with Tween-80
  T/C: 381 % of control
dose: 100.0 mg/kg/injection, schedule: Q14DX004 (ip), vehicle: saline with Tween-80
  T/C: 182 % of control
dose: 150.0 mg/kg/injection, schedule: Q14DX003 (ip), vehicle: saline with Tween-80
  T/C: 375 % of control

## NCCCC(=O)O
[1]
  T/C: 93 % of control
[2]
  T/C: 95 % of control
[3]
  T/C: 95 % of control

## CCCCCCCC(=O)NCCCC
[4]
  T/C: 96 % of control
[5]
  T/C: 96 % of control
[6]
  T/C: 92 % of control

## c1ccc2c(c1)CNCc1ccccc1-2
[1]
  T/C: 97 % of control

## Nc1nc(=S)c2[nH]cnc2[nH]1
dose: 0.12 mg/kg/injection, schedule: Q01DX009 (ip), vehicle: saline
  T/C: 96 % of control
dose: 0.25 mg/kg/injection, schedule: Q01DX009 (ip), vehicle: saline
  T/C: 96 % of control
dose: 0.5 mg/kg/injection, schedule: Q01DX009 (ip), vehicle: saline
  T/C: 110 % of control
dose: 0.5 mg/kg/injection, schedule: Q04DX003 (ip), vehicle: saline
  T/C: 110 % of control
dose: 1.0 mg/kg/injection, schedule: Q01DX009 (ip), vehicle: saline
  T/C: 93 % of control and 100 % of control
dose: 1.0 mg/kg/injection, schedule: Q04DX003 (ip), vehicle: saline
  T/C: 120 % of control
dose: 2.0 mg/kg/injection, schedule: Q01DX009 (ip), vehicle: saline
  T/C: 87 % of control
dose: 2.0 mg/kg/injection, schedule: Q04DX003 (ip), vehicle: saline
  T/C: 116 % of control
dose: 4.0 mg/kg/injection, schedule: Q04DX003 (ip), vehicle: saline
  T/C: 120 % of control
dose: 8.0 mg/kg/injection, schedule: Q04DX003 (ip), vehicle: saline
  T/C: 87 % of control
dose: 16.0 mg/kg/injection, schedule: Q04DX003 (ip), vehicle: saline
  T/C: 118 % of control
dose: 6.2 micrograms/kg/injection, schedule: Q03HX032 (ip), vehicle: saline
  T/C: 98 % of control
dose: 12.5 micrograms/kg/injection, schedule: Q03HX032 (ip), vehicle: saline
  T/C: 98 % of control
dose: 25.0 micrograms/kg/injection, schedule: Q03HX032 (ip), vehicle: saline
  T/C: 101 % of control
dose: 50.0 micrograms/kg/injection, schedule: Q03HX032 (ip), vehicle: saline
  T/C: 114 % of control
dose: 100.0 micrograms/kg/injection, schedule: Q03HX032 (ip), vehicle: saline
  T/C: 118 % of control

## Nc1ccc(OCc2ccc(S(=O)(=O)F)c(Cl)c2)c(Cl)c1
[7]
  T/C: 88 % of control
[4]
  T/C: 87 % of control
[8]
  T/C: 86 % of control
dose: 150.0 mg/kg/injection, schedule: Q01DX009 (ip), vehicle: Klucel (hydroxypropylcellulose) (HPC)
  T/C: 112 % of control
[5]
  T/C: 90 % of control
[9]
  T/C: 111 % of control

## C1CCN2CC3CC(CN4CCCCC34)C2C1 (stereo not drawn)
dose: 10.0 mg/kg/injection, schedule: Q01DX001 (ip), vehicle: saline
  T/C: 100 % of control
dose: 20.0 mg/kg/injection, schedule: Q01DX001 (ip), vehicle: saline
  T/C: 100 % of control
dose: 40.0 mg/kg/injection, schedule: Q01DX001 (ip), vehicle: saline
  T/C: 100 % of control

## Cc1ccc(N=C(c2ccc([N+](=O)[O-])cc2)c2ccc([N+](=O)[O-])cc2)cc1
dose: 50.0 mg/kg/injection, schedule: Q01DX001 (ip), vehicle: Klucel (hydroxypropylcellulose) (HPC)
  T/C: 105 % of control
[4]
  T/C: 96 % of control
[5]
  T/C: 93 % of control and 100 % of control
[6]
  T/C: 100 % of control

## Cc1ccc(S(=O)(=O)Nc2ccccc2-c2nc3c(Cl)ccc(Cl)c3c(=O)o2)cc1
[4]
  T/C: 96 % of control
[8]
  T/C: 90 % of control
[5]
  T/C: 103 % of control
[9]
  T/C: 90 % of control
[6]
  T/C: 93 % of control

## CCOC(=O)CCCl
[5]
  T/C: 111 % of control
[6]
  T/C: 97 % of control

## Cc1cnc2c(=N)n(C(=O)C(F)(F)F)n(C)c2n1
[1]
  T/C: 89 % of control
[2]
  T/C: 100 % of control
[3]
  T/C: 92 % of control

## O=c1cc(-c2ccccc2)nc(Nc2nc3ccc([N+](=O)[O-])cc3[nH]2)[nH]1
[4]
  T/C: 96 % of control
[5]
  T/C: 110 % of control
[6]
  T/C: 96 % of control

## O=C(Cc1ccc2cc3c(cc2c1)OCO3)NCCc1ccc2c(c1)OCO2
[4]
  T/C: 92 % of control
[8]
  T/C: 100 % of control
[5]
  T/C: 94 % of control
[9]
  T/C: 96 % of control
[6]
  T/C: 100 % of control
dose: 400.0 mg/kg/injection, schedule: Q04DX003 (ip), vehicle: Klucel (hydroxypropylcellulose) (HPC)
  T/C: 92 % of control

## COC(=O)C1(C)CCC(c2ccc(OC)cc2)CC1=O (stereo not drawn)
[10]
  T/C: 113 % of control
[7]
  T/C: 93 % of control
[1]
  T/C: 105 % of control
[8]
  T/C: 106 % of control
[2]
  T/C: 105 % of control
[9]
  T/C: 112 % of control

## N=Cc1c(O)[nH]c(=O)[nH]c1=O
[1]
  T/C: 105 % of control
[8]
  T/C: 100 % of control
[2]
  T/C: 119 % of control
[9]
  T/C: 93 % of control
[3]
  T/C: 88 % of control

## CC1(C)CCN1Cc1ccccc1
dose: 12.5 mg/kg/injection, schedule: Q01DX001 (ip), vehicle: saline
  T/C: 97 % of control
[11]
  T/C: 100 % of control
[10]
  T/C: 100 % of control

## CC1(C)N=C(N)N=C(N)N1c1cc(Cl)ccc1Cl
[11]
  T/C: 93 % of control
[10]
  T/C: 93 % of control
